Tests used:
Format in all cases: cell-based
[1] = tested on: HL-60 cells (human acute myeloid leukemia cells); experiment: alamarBlue proliferation assay with HL-60 cells; conditions: 120 h, 5 days, relative to DMSO baseline level of 1.0, read-out: AVEw, weighted arithmetic mean of normalized fluorescence intensity values (Activity Range), HL-60 proliferation
Method: (§1) The antiproliferative activities of compounds falling under formula I, formula II, formula III, formula IV and formula V were investigated on cells or cell lines originating from a disorder of the myeloid cell compartment, the neuroendocrine system, the cervix, and the mucosal epithelium, as well as from the skin epithelium. To this end, HL-60 cells, TT cells, HeLa cells, CAL-27 cells and human primary epidermal keratinocytes (HPEK) were seeded into 96-well plates suitable for fluorescence assays (CORNING #3598) at following initial cell numbers: 1000 cells per well for HL-60; 9000 cells per well for TT; 2000 cells per well for HeLa, 2000 cells per well for CAL-27, 2000 cells per well for HPEK. The cells were treated with compounds at indicated final concentrations (diluted from the 1000× stock-solutions in DMSO to a final DMSO concentration of 0.1% v/v) or with the empty carrier DMSO at 0.1% v/v as control for 5 days. At day 5 after starting the treatments the cells were subjected to the alamarBlue® Proliferation Assay (Bio-Rad Serotec GmbH, BUF012B) according to the protocol of the manufacturer. The readout was taken with a multi-well plate-reader in the fluorescence mode with applying a filter for excitation at 560 nm (band width 10 nm) and for emission at 590 nm (band width 10 nm). Resveratrol (RES) treatment was included as control for growth inhibition.
(§2) The assays were performed in duplicate or more replicates of independent single experiments each containing a six-fold replicate for every condition. For every individual plate, the measured fluorescence intensity values of the conditions with compound treatment were normalized against the corresponding equally weighted arithmetic mean of the fluorescence intensity values of the six DMSO treated control wells in order to obtain the relative values to a baseline level of 1.0. The statistical calculations were performed in analogy to the luciferase assay as described above. To this end, two independent outlier analyses were performed according to the methods by Peirce and Chauvenet (Ross, Journal of Engineering Technology 2003, 1-12). Outliers confirmed by at least one of the methods were excluded from the calculations but not more than one value out of six per compound within a single experiment. The weighted arithmetic mean AVEw for each compound was calculated from the normalized values over all independent replicates of the single experiments comprising the six replicates each. The corresponding standard deviation for the weighted arithmetic mean was calculated according to the method described by Bronstein et al. (Bronstein, Semendjajew, Musiol, Mühlig, Taschenbuch der Mathematik, 5th edition 2001 (German), publisher: Verlag Harri Deutsch, Frankfurt am Main and Thun) and was combined with the Gauß′ error propagation associated with the performed calculation for the normalization. The resulting standard deviation is herein referred to as “combined standard deviation”.
HL-60 cells were cultivated according to the protocol of the provider in RPMI 1640 medium (Fisherscientific, #11554526) containing 10% fetal bovine serum (Fisherscientific, #15517589).
(§3) A compound is considered as a growth inhibitor of HL-60 cells, if—at a reference concentration of 20 μM—the weighted arithmetic mean of the normalized fluorescence intensity values after addition of the corresponding combined standard deviation amounts to 0.9 or lower, in particular to 0.8 or lower, 0.7 or lower, 0.6 or lower, 0.4 or lower, and 0.2 or lower, relative to the overall basis level of 1.0. The overall basis level was calculated as the weighted arithmetic mean of all normalized values from the DMSO control measurements in analogy to the calculations performed for the test-compounds. The corresponding combined standard deviation for the DMSO values amounts to less than 1·10^−2.

[2] = tested on: CAL-27 cells (human tongue squamous cell carcinoma cells); experiment: alamarBlue proliferation assay with CAL-27 cells; conditions: Homo sapiens, 120 h, 20 μM, 5 days, relative to DMSO baseline level of 1.0, read-out: AVEw, weighted arithmetic mean of normalized fluorescence intensity values (Activity Range), CAL-27 proliferation
Method: as §1, §2
CAL-27 cells were cultivated according to the protocol of the provider (but at 5% instead of 10% CO2) in DMEM medium (Fisherscientific, #11584456) containing 10% fetal bovine serum (Fisherscientific, #15517589).
as §3, with “CAL-27” for “HL-60”

[3] = tested on: Notch signaling (hNotch1ΔE, human Notch1 receptor) in HeLa cells; experiment: Notch reporter assay (luciferase luminescence readout in transfected HeLa cells); conditions: Homo sapiens, 20 hours, relative to DMSO baseline level of 1.0, read-out: AVEw, weighted arithmetic mean of double-normalized Notch-reporter luciferase luminescence values (Activity Range)
Method: An according Notch-reporter assay, i.e. a luciferase-based luminescence readout, was used here to quantify the ability of the claimed small molecules to augment Notch signaling in a cellular system. For this purpose, HeLa cells, obtainable from the American Type Culture Collection (ATCC) under the accession number ATCC-CCL-2, were transiently transfected for 24 hours using FuGENE® HD (Promega, #E2311) as transfection reagent with expression vectors of a membrane-tethered form of the constitutively active intracellular domain of the human Notch1 receptor (hNotch1ΔE) to activate the signaling cascade (BPS Bioscience, human analogue to Notch Pathway Reporter Kit #60509 component C), a Firefly luciferase being expressed under the control of a Notch-responsive promoter to monitor Notch signaling (BPS Bioscience, Notch Pathway Reporter Kit #60509, CSL luciferase reporter vector from component A not premixed with Renilla luciferase vector), and a Renilla luciferase being constitutively expressed in a Notch signaling independent manner to include a measure for the cell number per sample (Promega, pRL-SV40, #E2231). HeLa cells were cultivated according to the protocol of the provider in DMEM medium (Fisherscientific, #11584456) containing 10% fetal bovine serum (Fisherscientific, #15517589). The transfection was carried out in a 100 mm-culture dish (StarLab, #CC7682-3394) with cells being properly attached to the plate at a cell confluency of 80-90% in a total volume of 7 mL culture medium. Per dish to be transfected, a transfection mix was prepared by adding to 238 μL Opti-MEM (Fisherscientific, #10149832) 40 μL of the hNotch1ΔE expression vector (100 ng/μL), 80 μL of the CSL luciferase reporter vector (40 ng/μL), 4 μL of the pRL-SV40-Renilla luciferase vector (10 ng/μL), and in the last step 18.1 μL of FuGENE® HD. After addition of FuGENE® HD the transfection mix was let stand for 15 min at room temperature and hereafter equally distributed into the culture dish. Subsequently, i.e. after 24 hours of transfection, the transfected cells (10.000 cells per well) were incubated with the test-compounds at a final concentration of 10 μM (diluted from 10 mM stock-solutions in DMSO to a final DMSO concentration of 0.1% v/v) or with the empty carrier DMSO at 0.1% v/v as control for 20 hours in 96-well plates suitable for luminescence readouts (CORNING, #3610). Hereafter, the cells were lysed with 30 μL per well of Passive Lysis Buffer (Promega, #E194A, component of Dual-Luciferase® Reporter Assay System, #E1910) and the Firefly as well as Renilla luciferase values were measured with a luminescence reader with applying 15 μL per well each of the corresponding enzyme substrates needed to create the luminescence signals (Promega, Dual-Luciferase® Reporter Assay System, #E1910).
The suitability of the assays for monitoring Notch signaling was controlled by additionally including a generally accepted commercial Notch inhibitor, i.e. DAPT, as negative control, as well as the reported Notch enhancer resveratrol (RES) as positive control (Pinchot et al., Cancer 2011, 117, 1386-1398; Truong et al., Ann. Surg. Oncol. 2011, 18, 1506-1511; Yu et al., Mol. Cancer Ther. 2013, 12, 1276-1287). Both control compounds were likewise tested at 10 μM.
Per single experiment the measurement was performed in six replicates per compound. For every compound, this experiment was repeated in three or more independent replicates. The values of the Notch-reporter luciferase were normalized by division through the corresponding individual Notch-independent Renilla values in order to eliminate the impact of variation in the absolute cell-numbers in between the samples. For every individual plate, a second normalization was performed against the equally weighted arithmetic mean (here abbreviated as AVE) of the six associated Renilla-normalized DMSO-control values within a single experiment in order to obtain the relative values to a baseline level of 1.0. […]

Structure (SMILES) | activity at 20 µM [1] [%] | activity at 20 µM [2] [%] | fold induction at 10 µM [3]
CN(C)C(=O)c1ccc(Oc2ccc(C34CC5CC(CC(C5)C3)C4)cc2)cc1 [Compound 238, 4-(4-((3r,5r,7r)-adamantan-1-yl)pheoxy)-N,N-dimethylbenzamide] | 40 to 60 | 60 to 70 | 
CCC(C)(C)c1ccc(Oc2ccc(C(=O)NO)cc2F)cc1 [Compound 529, 3-fluoro-N-hydroxy-4-(4-(tert-pentyl)phenoxy)benzamide] | 0 to 20 | 0 to 20 | 
O=C(NO)c1ccc(Oc2ccc(C3(C(F)(F)F)CC3)cc2)cc1 [Compound 766, N-hydroxy-4-(4-(1-(trifluoromethyl)cyclopropyl)phenoxy)benzamide] | 0 to 20 | 0 to 20 | 
Cc1ccc(Oc2ccc(C(=O)NO)cc2)cc1 [Compound 164, N-hydroxy-4-(p-tolyltoxy)benzamide] | 40 to 60 | 70 to 80 | 
CN(C)C(=O)c1cnc(Oc2ccc(C3(C(F)(F)F)CC3)cc2)c(F)c1 [Compound 822, 5-fluoro-N,N-dimethyl-6-(4-(1-(trifluoromethyl)cyclopropyl)phenoxy)nicotinamide] | 70 to 80 | 80 to 90 | 
CCCCCc1ccc(Oc2ccc(C(=O)NO)cn2)cc1 [Compound 270, N-hydroxy-6-(4-pentylphenoxy)nicotinamide] | 0 to 20 | 0 to 20 | 
O=C(NO)c1ccc(Oc2ccc(C3(C(F)(F)C(F)(F)F)CC3)cc2)cc1 [Compound 767, N-hydroxy-4-(4-(1-(perfluoroethyl)cyclopropyl)phenoxy)benzamide] | 0 to 20 | 0 to 20 | 
CN(C)C(=O)c1ccc(Oc2ccc(C3C[C@@H]4CC[C@H]3C4)cc2)cc1 (stereo partly drawn) [Compound 236, 4-(4-((1S,4R)-bicyclo[2.2.1]heptan-2-yl)phenoxy)-N,N-dimethylbenzamide] | 40 to 60 | 80 to 90 | 
CCOC(=O)c1ccc(Oc2ccc(C3CC4CCC3CC4)cc2)cc1 (racemic) [Compound 067, ethyl 4-(4-((1s,4s)-bicyclo[2.2.2]octan-2-yl)phenoxy)benzoate] | 60 to 70 |  | 1.4 to 1.7
CCCc1ccc(Oc2ccc(C(=O)N(C)C)cn2)cc1 [Compound 318, N,N-dimethyl-6-(4-propylphenoxy)nicotinamide] | 40 to 60 |  | 1.7 to 2
CCc1ccc(Oc2ccc(C(=O)N(C)C)cn2)cc1 [Compound 317, 6-(4-ethylphenoxy)-N,N-dimethylnicotinamide] | 80 to 90 |  | 1.4 to 1.7
CN(C)C(=O)c1ccc(Oc2ccc(C(C)(C)C)cc2)cc1 [Compound 222, 4-(4-(tert-Butyl)phenoxy)-N,N-dimethylbenzamide] | 60 to 70 |  | 1.2 to 1.3
CN(C)C(=O)c1ccc(Oc2ccc(C3C[C@@H]4CC[C@H]3C4)cc2)nc1 (stereo partly drawn) [Compound 336, 6-(4-((1S,4R)-bicyclo[2.2.1]heptan-2-yl)phenoxy)-N,N-dimethylnicotinamide] | 60 to 70 |  | 1.4 to 1.7
CCCCc1ccc(Oc2ccc(C(=O)O)cn2)cc1 [Compound 072, 6-(4-butylphenoxy)nicotinic acid] | 80 to 90 |  | 1.4 to 1.7
CCOC(=O)c1ccc(Oc2ccc(C(C)(C)CC)cc2)c(F)c1 [Compound 399, ethyl 3-fluoro-4-(4-(tert-pentyl)phenoxy)benzoate] | 80 to 90 |  | 1.1 to 1.2
CC(C)c1ccc(Oc2ccc(C(=O)O)cn2)cc1 [Compound 075, 6-(4-isopropylphenoxy)nicotinic acid] | 80 to 90 |  | 1.4 to 1.7
CCCCc1ccc(Oc2ccc(C(=O)N(C)C)cn2)cc1 [Compound 319, 6-(4-butylphenoxy)-N,N-dimethylnicotinamide] | 40 to 60 |  | 1.3 to 1.4
COC(=O)c1ccc(Oc2ccc(C3CCCCC3)cc2)c(F)c1 [Compound 385, methyl 4-(4-cyclohexylphenoxy)-3-fluorobenzoate] | 80 to 90 |  | 1.4 to 1.7

Reference: patent US12600696B2 (XENIOPRO GMBH, priority 2017, dated 2026)
